Values joined by “and” are separate entries in the source; they are usually repeats but may differ in a detail not shown here. Identical values can stand only once. Like-named read-outs stand apart in the source and are kept apart here.
Columns and labels:
Format in all cases: physicochemical
[1] = Moisture content by Karl Fischer (KF)
Method: As noted, lactitol exists in the monohydrate, dihydrate, trihydrate, and hexahydrate forms. Lactitol monohydrate is the preferred form of lactitol for use. Lactitol monohydrate is defined by the EU-NP and USP-NF as having moisture content of between 4.5 wt % and 5.5 wt %. As used herein, the term “moisture content” refers to the total moisture content of a composition, including both free and bound water. Moisture contents reported here are determined by the Karl-Fischer (KF) method, but may also be determined by other suitable methods known in the art.
During the weighing of the ingredients for the binder solution and during the set up for granulation, an approximately 100 g sample representing each raw material is taken and placed into an appropriately labeled container. An approximately 0.3 gram sample is dispersed in methanol and test using a Karl Fischer moisture analyzer with HYDRANAL Composite 5 titrant using a 60 sec extraction time. Percent moisture was reported.
For each Qualification lot, at the beginning and middle of each shift samples were pulled using a sample thief from three locations within the tub after granulation but before drying. These samples were tested for moisture as described above.
Moisture content was also tested using the same procedure after the second drying step.

Bulk density = assay: Bulk density
Method: (§1) Tapped density of the granulates of the present invention is typically at least about 0.6 g/mL, at least about 0.75 g/mL, at least about 0.80 g/mL, at least about 0.85 g/mL, or at least about 0.90 g/mL. Overall, the tapped density of the granulates of the present invention generally ranges from about 0.6 g/mL to about 1.0 g/mL, from about 0.7 g/mL to about 0.95 g/mL, or from about 0.8 g/mL to about 0.9 g/mL (e.g., about 0.85 g/mL). Bulk and tapped density as reported herein are determined by USP <616>, but it should be understood that other methods known in the art may be also be utilized to determine the tapped densities of compositions of the present invention.
(§2) Tare a 250 mL graduated glass cylinder. Fill with 100 grams of sample. Reweigh to determine weight. Record Initial Volume. The bulk density is the weight in grams divided by the volume (mL). Tap 1000 times by the automated tapping device. Read final volume. The tapped density is the weight in grams divided by the tapped volume (mL).

[2] = ROTAP sieve particle size distribution (% retained); settings: for Particle Size Distribution (% Retained) 12: 12 mesh screen; for Particle Size Distribution (% Retained) 20: 20 mesh screen; for Particle Size Distribution (% Retained) 40: 40 mesh screen; for Particle Size Distribution (% Retained) 60: 60 mesh screen; for Particle Size Distribution (% Retained) 80: 80 mesh screen; for Particle Size Distribution (% Retained) 100: 100 mesh screen; for Particle Size Distribution (% Retained) 200: 200 mesh screen; for Particle Size Distribution (% Retained) Pan: receiving pan
Method: (§3) All particle size (PS) analyses were conducted using a ROTAP Particle Size Analyzer and a MALVERN MASTERSIZER 2000, except as otherwise indicated. All particle size data were measured in microns and analyzed via the MALVERN MASTERSIZER 2000.
Particle Size: During the granulation process, an approximately 300 g sample is taken from material of the finished product drum starting with the first drum and every sixth drum thereafter, including the last drum (i.e. drum #1, 7, 13, 19 etc.). […] Each fraction was weighed and percent retained was calculated.

Tapped density = assay: Tapped density
Method: as §1, §2

[3] = MALVERN MASTERSIZER 2000 particle size (d10, d50, d90); settings: for d50: after U5 COMIL, 0.032″ round hole screen
Method: as §3

[4] = Moisture, loss on drying (LOD), halogen moisture balance; settings: final / as dried material
Source text: Unless otherwise indicated, the following equipment was used in Examples 1a and 1b: R&D TURBULIZER High Shear Granulator, Model TCB; Large ACCURATE Powder Feeder; AEROMATIC Fluid Bed Dryer, Model S-2; ADMIX High Shear Mixer; SWECO Vibratory Sieve, 18″; STURTEVANT MICRONIZER Jet Mill, Model 45DM; Halogen Moisture Balance (to determine moisture levels); MALVERN MASTERSIZER 2000 (particle size analyzer); ROTAP particle size analyzer; and a Tapped Density Tester.
A sample of lactitol monohydrate (DANISCO) was evaluated for particle size moisture (loss on drying (LOD)), bulk density, and tapped density. […] A photo micrograph of the material was also generated (FIG. 2).
At approximately 125 g/min, the expected moisture level would be approximately 3.4%. However, at this initial binder flow rate, the granulation exiting the mixer felt too dry and was not as granular as desired. […] The final setting was 37 Hz or approximately 140 g/min. At this binder flow rate the expected granulation moisture level would be approximately 3.8%. No additional adjustments were made to the operating conditions over the remainder of the run. The final wet granulation moisture was approximately 2%. In order to improve the accuracy of the LOD moisture results the moisture balance test conditions were altered.
The expected moisture level at this setting would be approximately 4%. […]

[5] = HANSON FLODEX powder flowability (viscosity)
Source text: Samples were also subjected to flowability testing using a HANSON FLODEX Powder Flowability tester. The basis for the method is the powders ability to fall freely through a hole in a plate. The diameter of the smallest hole through which the powder passes is considered the flowability index. The flowability index (radius of hole size in cm) along with the bulk density of the material tested are then used to determine the viscosity (internal friction coefficient) of the powder. Lower powder viscosity indicates better flowability.
Samples of the finished lactitol granulations produced during execution of the commercial optimization protocol were also evaluated for flow using the HANSON Intrinsic Flowability Test. During the test, the smallest hole (in millimeters) that the product will flow through is determined in the FLODEX apparatus. Using this information and the bulk density of each powder (as determined in a 250 mL graduated cylinder) the coefficient of friction or viscosity (K) was calculated. The viscosity K (in poises) is equal to 490 (½ the acceleration of gravity) times the radius of the hole in centimeters times the bulk density of the sample. The result K is then multiplied by 100 to express the viscosity in centipoises.

| SMILES | KF moisture [1] | Bulk Density (Bulk density) [g/mL] | Particle Size Distribution (% Retained) 12 [2] [%] | Particle Size Distribution (% Retained) 20 [2] [%] | Particle Size Distribution (% Retained) 40 [2] [%] | Particle Size Distribution (% Retained) 60 [2] [%] | Particle Size Distribution (% Retained) 80 [2] [%] | Particle Size Distribution (% Retained) 100 [2] [%] | Particle Size Distribution (% Retained) 200 [2] [%] | Particle Size Distribution (% Retained) Pan [2] [%] | Tapped Density (Tapped density) [g/mL] | PS d10 [3] [μ] | PS d50 [3] [μ] | PS d90 [3] [μ] | d50 (mean particle size by volume distribution) [3] [microns] | Moisture NMT 3.0% [4] [%] | other results |
| --- | --- | --- | --- | --- | --- | --- | --- | --- | --- | --- | --- | --- | --- | --- | --- | --- | --- |
| OC[C@@H](O)[C@@H](O[C@@H]1O[C@H](CO)[C@H](O)[C@H](O)[C@H]1O)[C@H](O)[C@@H](O)CO [milled lactitol] | 5.05% and 4.99% | – | – | – | – | – | – | – | – | – | – | – | – | – | – | – | – |
| OC[C@@H](O)[C@@H](O[C@@H]1O[C@H](CO)[C@H](O)[C@H](O)[C@H]1O)[C@H](O)[C@@H](O)CO [Jet Milled B] | – | 0.670 | 0.0 | 0.0 | 1.9 | 14.4 | 17.2 | 10.7 | 36.3 | 19.5 | 0.933 | 5.3 | 60.0 | 316.2 | 60 | – | – |
| O.OC[C@@H](O)[C@@H](O[C@@H]1O[C@H](CO)[C@H](O)[C@H](O)[C@H]1O)[C@H](O)[C@@H](O)CO [Raw Lactitol B] | – | 0.677 | 0.0 | 0.3 | 64.4 | 29.9 | 3.6 | 0.7 | 0.8 | 0.3 | 0.754 | 94.2 | 365.3 | 720.3 | – | 1.28 | – |
| OC[C@@H](O)[C@@H](O[C@H]1O[C@H](CO)[C@H](O)[C@H](O)[C@H]1O)[C@H](O)[C@@H](O)CO [Raw Lactitol, 4-O-α-D-Galactopyranosyl-D-glucitol] | 4.93% | 0.798 | 0.0 | 10.0 | 57.0 | 26.3 | 4.0 | 0.9 | 1.3 | 0.5 | 0.925 | 112.4 | 426.1 | 922.8 | 426 | 0.61 | Flow Viscosity [5]: ~10 CPS (×1000); viscosity (flowability) [5]: approximately 9,776 cps; Tapped Density (Tapped density; listed as Raw Lactitol A): 0.925 g/mL; Tapped Density (Tapped density; listed as lactitol monohydrate): 0.93 g/mL; Particle Size Span [3]: 1.9; d50 ([3]; round bar impeller, 1500 rpm): 235 microns; d50 ([3]; round bar impeller, 1800 rpm): 196 microns; d50 ([3]; square bar impeller, 4200 rpm): approximately 115 microns |

From patent US20200170291A1, “PROCESSES FOR PRODUCING LACTITOL GRANULATES AND GRANULATES PRODUCED THEREBY” (PARTICLE DYNAMICS INTERNATIONAL, LLC, priority 2017, published 2020)
